“And” between values parts separate entries of the source, which are not always exact repeats. Equal entries are not always repeated. Where two headings read alike, the source gives them in different places.
Legend:
[1] = LPME of drugs from human plasma, urine and whole blood with vial format device, CZE analysis; type: physicochemical
[2] = LPME of seven basic drugs with different hollow fibres (polypropylene, polysulfone); type: physicochemical
[3] = LPME of seven basic drugs from water with different acidic acceptor phases, CE analysis; type: physicochemical
[4] = LPME of eight basic drugs from water with phosphate buffer acceptors of different pH, CE analysis; type: physicochemical
[5] = LPME with different supported liquid membrane liquids, 96 well format device, HPLC analysis; conditions: 0.1 M hydrochloric acid acceptor, 30 min
Source text: A mixture of acidic and basic drugs was used in this study, together with 0.1 M hydrochloric acid or 0.1 M sodium hydroxide as the acceptor phase.
Four different membrane forming small molecular weight organic liquids were investigated for selectivity differences, viz. hexyl ether, 4-nitrophenyl octyl ether, 1-octanol and 2-octyl-1-dodecanol. […] A cover plate of a 96 well block, carrying polypropylene fiber of 8 cm length, 600 μm inner diameter and 0.2 μm pore size, was dipped into each of these pure liquids for 5 seconds. These liquids were contained in different wells of a 96 well plate. The fibers in the cover plate were then washed by sonication in water for 15 seconds to remove excess material sticking to the fibers. A five component mixture of acidic and basic drugs was prepared from acetaminophen, naproxen, bamethane, quinidine and doxepin. Concentrations of the stock drug solutions were 1.0 mg/mL in each case. […] This is to maintain roughly the same level of analytical signal with each of these drugs. The mixture was diluted to 20 mL with water so that the concentrations of the three dilute drugs is in the range of 1 μg/mL, while those of the more concentrated drugs is in the range of 5 μg/mL. 500 μL of this diluted mixture of drugs is further diluted eight fold (to 4 mL) with water containing 250 μL of 2.0 M sodium hydroxide and used for extraction. […] The acceptor solution consisted of 25 μL of 0.1 M hydrochloric acid in each case. Extraction time with vibration was 30 min for each membrane liquid. The enriched acceptor solution was diluted three fold in each case and 25 μL of the resulting diluted solution used for analysis by high performance liquid chromatography on a Omnisphere C18 column using acetonitrile/pH 7.0 dipotassium hydrogen phosphate as mobile phase. A gradient from 5% acetonitrile to 40% was used to elute the strongly retained components in a reasonable time frame.

[6] = human plasma 250 μL, hexyl ether membrane, 0.01 M hydrochloric acid acceptor, 30 minutes
[7] = human whole blood 250 μL, hexyl ether membrane, 0.01 M hydrochloric acid acceptor, 30 minutes
[8] = hollow fibre Polypropylene, 280 μm ID, hexyl ether, 0.01 M hydrochloric acid acceptor
[9] = hollow fibre Polypropylene, 600 μm ID, hexyl ether, 0.01 M hydrochloric acid acceptor
[10] = hollow fibre Polysulfone, 500 μm ID, hexyl ether, 0.01 M hydrochloric acid acceptor
[11] = acceptor phase 10 mM CH3COOH, measured pH 3.3, water sample, 100 ng/mL
[12] = acceptor phase 10 mM H2S04, measured pH 2.1, water sample, 100 ng/mL
[13] = acceptor phase 10 mM H3PO4, measured pH 2.5, water sample, 100 ng/mL
[14] = acceptor phase 10 mM HCOOH, measured pH 3.1, water sample, 100 ng/mL
[15] = acceptor phase 10 mM HCl, measured pH 2.1, water sample, 100 ng/mL
[16] = acceptor phase 10 mM HNO3, measured pH 1.9, water sample, 100 ng/mL
[17] = acceptor phase 10 mM acetate, measured pH 4.8, water sample, 100 ng/mL
[18] = acceptor phase 10 mM phosphate, measured pH 3.3, water sample, 100 ng/mL
[19] = acceptor phase 100 mM CH3COOH, measured pH 2.7, water sample, 100 ng/mL
[20] = acceptor phase 100 mM H2S04, measured pH 1.3, water sample, 100 ng/mL
[21] = acceptor phase 100 mM H3PO4, measured pH 1.8, water sample, 100 ng/mL
[22] = acceptor phase 100 mM HCOOH, measured pH 2.3, water sample, 100 ng/mL
[23] = acceptor phase 100 mM HCl, measured pH 1.2, water sample, 100 ng/mL
[24] = acceptor phase 100 mM phosphate, measured pH 3.0, water sample, 100 ng/mL
[25] = human urine or plasma 2.5 mL, 1-octanol membrane, 0.1M hydrochloric acid acceptor, 45 minutes
[26] = 10 mM phosphate buffer acceptor pH 2.5, 60 minutes
[27] = 10 mM phosphate buffer acceptor pH 3.5, 60 minutes
[28] = 10 mM phosphate buffer acceptor pH 4.5, 60 minutes
[29] = 10 mM phosphate buffer acceptor pH 5.5, 60 minutes
[30] = 10 mM phosphate buffer acceptor pH 6.5, 60 minutes
[31] = 10 mM phosphate buffer acceptor pH 7.5, 60 minutes
[32] = supported liquid membrane 1-octanol
[33] = supported liquid membrane 2-octyl-1-dodecanol
[34] = supported liquid membrane 4-nitrophenyl octyl ether
[35] = supported liquid membrane Hexyl Ether
[36] = human plasma 0.5 mL, hexyl ether, 0.1 M hydrochloric acid (17 μL) acceptor, 45 minutes, tramadol example
[37] = human plasma, same fashion as tramadol example, running buffer 75 mM phosphate pH 3.0 + triethylamine + hydroxypropyl-β-cyclodextrin
[38] = acceptor phase 100 mM HNO3, measured pH 1.1, water sample, 100 ng/mL
[39] = human urine 2.0 mL, hexyl ether, 0.01 M hydrochloric acid acceptor, 45 minutes

CC(CN1c2ccccc2Sc2ccccc21)N(C)C (stereo not drawn) [promethazine]
Enrichment [1, 6]: 5.5
Extraction efficiency [1, 6]: 55%
Enrichment [1, 7]: 4.3
Extraction efficiency [1, 7]: 43%

CN[C@@H](C)Cc1ccccc1 [methamphetamine]
Enrichment (average of 3 replicates) [2, 8]: 123
Enrichment (average of 3 replicates) [2, 9]: 122
Enrichment (average of 3 replicates) [2, 10]: 46
Enriched to the extent of ([2]; polypropylene fiber, 600 μm inner diameter, hexyl ether, 0.01 M hydrochloric acid): 82%
Recovered/enriched to the extent of ([2]; polysulfone fiber, 500 μm inner diameter, hexyl ether, 0.01 M hydrochloric acid): 22%
Enrichment (average of 3 replicates) [3, 11]: 93
Enrichment (average of 3 replicates) [3, 12]: 141
Enrichment (average of 3 replicates) [3, 13]: 96
Enrichment (average of 3 replicates) [3, 14]: 106
Enrichment (average of 3 replicates) [3, 15]: 122
Enrichment (average of 3 replicates) [3, 16]: 125
Enrichment (average of 3 replicates) [3, 17]: 128
Enrichment (average of 3 replicates) [3, 18]: 136
Enrichment (average of 3 replicates) [3, 19]: 77
Enrichment (average of 3 replicates) [3, 20]: 134
Enrichment (average of 3 replicates) [3, 21]: 83
Enrichment (average of 3 replicates) [3, 22]: 13
Enrichment (average of 3 replicates) [3, 23]: 120
Enrichment (average of 3 replicates) [3, 24]: 133
Enrichment [1, 6]: 8.1
Extraction efficiency [1, 6]: 81%
Enrichment [1, 25]: 75 fold
Extraction efficiency [1, 25]: 75%
Enrichment ([1]; human whole blood 2.5 mL, 280 μm ID polypropylene fiber, hexyl ether, 17 μL 0.1 M hydrochloric acid acceptor, 30 minutes): one hundred
Enrichment [1, 7]: 7.8
Extraction efficiency [1, 7]: 78%
Enrichment (average of 3 replicates) [4, 26]: 150
Enrichment (average of 3 replicates) [4, 27]: 146
Enrichment (average of 3 replicates) [4, 28]: 150
Enrichment (average of 3 replicates) [4, 29]: 134
Enrichment (average of 3 replicates) [4, 30]: 122
Enrichment (average of 3 replicates) [4, 31]: 88

COC(=O)[C@H]1[C@H]2C[C@@H]3c4[nH]c5cc(OC)ccc5c4CCN3C[C@H]2C[C@@H](OC(=O)c2cc(OC)c(OC)c(OC)c2)[C@@H]1OC [reserpin]
Enrichment (average of 3 replicates) [4, 26]: 18
Enrichment (average of 3 replicates) [4, 27]: 2

CCOC(=O)C1(c2ccccc2)CCN(C)CC1 [pethidine]
Enrichment (average of 3 replicates) [2]: 125 and 128 and 122
Enrichment (average of 3 replicates) ([3]; pH 1.1): 64
Enrichment (average of 3 replicates) ([3]; pH 1.2): 139
Enrichment (average of 3 replicates) ([3]; pH 1.3): 141
Enrichment (average of 3 replicates) ([3]; pH 1.8): 90
Enrichment (average of 3 replicates) ([3]; pH 1.9): 106
Enrichment (average of 3 replicates) ([3]; pH 2.1): 128 and 144
Enrichment (average of 3 replicates) ([3]; pH 2.3): 106
Enrichment (average of 3 replicates) ([3]; pH 2.5): 98
Enrichment (average of 3 replicates) ([3]; pH 2.7): 90
Enrichment (average of 3 replicates) ([3]; pH 3): 131
Enrichment (average of 3 replicates) ([3]; pH 3.1): 115
Enrichment (average of 3 replicates) ([3]; pH 3.3): 96 and 139
Enrichment (average of 3 replicates) ([3]; pH 4.8): 106 and 91
Enrichment [1]: 74%/7.4 and 72%/7.2
Extraction efficiency [1]: 74%/7.4 and 72%/7.2
Enrichment (average of 3 replicates) ([4]; pH 2.5): 160
Enrichment (average of 3 replicates) ([4]; pH 3.5): 147
Enrichment (average of 3 replicates) ([4]; pH 4.5): 131
Enrichment (average of 3 replicates) ([4]; pH 5.5): 90
Enrichment (average of 3 replicates) ([4]; pH 6.5): 34
Enrichment (average of 3 replicates) ([4]; pH 7.5): 6

CNCCCC1(c2ccc(F)cc2)OCc2cc(C#N)ccc21 (stereo not drawn) [N-desmethyl metabolite, N-desmethylcitalopram]
Preconcentration ([1]; patient plasma 1 mL, hexyl ether membrane, 20 mM phosphate buffer pH 2.75 acceptor, 45 minutes): 30 fold

O=C(CCCN1CCC(O)(c2ccc(Cl)cc2)CC1)c1ccc(F)cc1 [haloperidol]
Enrichment (average of 3 replicates) [2]: 131

C=C[C@H]1C[N@@]2CC[C@H]1C[C@@H]2[C@@H](O)c1ccnc2ccc(OC)cc12 [quinidine]
Enrichment [5, 32]: 100
Enrichment [5, 33]: 20
Enrichment [5, 34]: 52
Enrichment [5, 35]: 100

COc1cccc(C2(O)CCCCC2CN(C)C)c1 (stereo not drawn) [Tramadol, tramadol]
Enrichment [1, 36]: 30 fold
Extraction efficiency [1, 36]: 100%

CN1CCN2c3ccccc3Cc3ccccc3C2C1 (stereo not drawn) [Mianserine, mianserine]
Enrichment [1, 37]: 15 fold
Extraction efficiency [1, 37]: 50%

CN1C(=O)CN=C(c2ccccc2)c2cc(Cl)ccc21 [diazepam]
Enrichment (average of 3 replicates) ([4]; pH 2.5): 3
Enrichment (average of 3 replicates) ([4]; pH 3.5): 2

CN1CCN(C(c2ccccc2)c2ccc(Cl)cc2)CC1 (stereo not drawn) [chlorcyclizine]
Enrichment (average of 3 replicates) [2, 8]: 106
Enrichment (average of 3 replicates) [2, 9]: 126
Enrichment (average of 3 replicates) [2, 10]: 110
Enrichment (average of 3 replicates) [3, 11]: 32
Enrichment (average of 3 replicates) [3, 12]: 122
Enrichment (average of 3 replicates) [3, 13]: 118
Enrichment (average of 3 replicates) [3, 14]: 72
Enrichment (average of 3 replicates) [3, 15]: 126
Enrichment (average of 3 replicates) [3, 16]: 120
Enrichment (average of 3 replicates) [3, 17]: 3
Enrichment (average of 3 replicates) [3, 18]: 83
Enrichment (average of 3 replicates) [3, 19]: 66
Enrichment (average of 3 replicates) [3, 20]: 136
Enrichment (average of 3 replicates) [3, 21]: 80
Enrichment (average of 3 replicates) [3, 22]: 93
Enrichment (average of 3 replicates) [3, 23]: 138
Enrichment (average of 3 replicates) [3, 38]: 136
Enrichment (average of 3 replicates) [3, 24]: 93
Enrichment ([1]; human plasma 2.0 mL, hexyl ether, 0.01 M hydrochloric acid acceptor, 45 minutes): 52
Enrichment (average of 3 replicates) [4, 26]: 123
Enrichment (average of 3 replicates) [4, 27]: 32
Enrichment (average of 3 replicates) [4, 28]: 5

CN(C)CCC=C1c2ccccc2COc2ccccc21 [doxepin]
Enrichment [5, 32]: 58
Enrichment [5, 33]: 147
Enrichment [5, 34]: 227
Enrichment [5, 35]: 202

COc1ccc2c(c1OC)C(=O)O[C@@H]2[C@H]1c2c(cc3c(c2OC)OCO3)CCN1C [noscapin]
Enrichment (average of 3 replicates) [4, 26]: 8
Enrichment (average of 3 replicates) [4, 27]: 2

COc1ccc2cc([C@H](C)C(=O)O)ccc2c1 [Naproxen, naproxen]
Enrichment [1]: 82 fold

CC(N)Cc1ccccc1 (stereo not drawn) [amphetamine]
Enrichment (average of 3 replicates) [2, 8]: 104
Enrichment (average of 3 replicates) [2, 9]: 82
Enrichment (average of 3 replicates) [2, 10]: 22
Enrichment (average of 3 replicates) [3, 11]: 66
Enrichment (average of 3 replicates) [3, 12]: 104
Enrichment (average of 3 replicates) [3, 13]: 72
Enrichment (average of 3 replicates) [3, 14]: 72
Enrichment (average of 3 replicates) [3, 15]: 82
Enrichment (average of 3 replicates) [3, 16]: 48
Enrichment (average of 3 replicates) [3, 17]: 90
Enrichment (average of 3 replicates) [3, 18]: 123
Enrichment (average of 3 replicates) [3, 19]: 48
Enrichment (average of 3 replicates) [3, 20]: 98
Enrichment (average of 3 replicates) [3, 21]: 58
Enrichment (average of 3 replicates) [3, 22]: 5
Enrichment (average of 3 replicates) [3, 23]: 74
Enrichment (average of 3 replicates) [3, 24]: 128
Enrichment [1, 39]: 77
Extraction efficiency [1, 39]: 97%
Enrichment (average of 3 replicates) [4, 26]: 107
Enrichment (average of 3 replicates) [4, 27]: 102
Enrichment (average of 3 replicates) [4, 28]: 104
Enrichment (average of 3 replicates) [4, 29]: 93
Enrichment (average of 3 replicates) [4, 30]: 88
Enrichment (average of 3 replicates) [4, 31]: 64

CCC(=O)C(CC(C)N(C)C)(c1ccccc1)c1ccccc1 (stereo not drawn) [methadone]
Enrichment (average of 3 replicates) [2, 8]: 138
Enrichment (average of 3 replicates) [2, 9]: 138
Enrichment (average of 3 replicates) [2, 10]: 139
Enrichment (average of 3 replicates) [3, 11]: 86
Enrichment (average of 3 replicates) [3, 12]: 157
Enrichment (average of 3 replicates) [3, 13]: 96
Enrichment (average of 3 replicates) [3, 14]: 114
Enrichment (average of 3 replicates) [3, 15]: 138
Enrichment (average of 3 replicates) [3, 16]: 141
Enrichment (average of 3 replicates) [3, 17]: 42
Enrichment (average of 3 replicates) [3, 18]: 134
Enrichment (average of 3 replicates) [3, 19]: 84
Enrichment (average of 3 replicates) [3, 20]: 150
Enrichment (average of 3 replicates) [3, 21]: 77
Enrichment (average of 3 replicates) [3, 22]: 91
Enrichment (average of 3 replicates) [3, 23]: 134
Enrichment (average of 3 replicates) [3, 38]: 107
Enrichment (average of 3 replicates) ([3]; acceptor phase 100 mM acetate, measured pH 4.8, water sample, 100 ng/mL): 42
Enrichment (average of 3 replicates) [3, 24]: 117
Enrichment [1, 6]: 6.4
Enrichment [1, 7]: 5.4

— patent US7468281B2, “Hollow fiber membrane sample preparation devices” (priority 2001, dated 2008)
